Assay results from EP0124925A1, “Derivatives of d-2-(6-methoxy-2-naphthyl)-propionic acid having therapeutical activity, process for their preparation and pharmaceutical compositions containing them” (FARMA RESA SrL, priority 1983, dated 1984).
Where a name gives a salt, the structure may show the parent alone.

Key:
[1] = mucolithic activity: viscosity of expectorate; conditions: 0.05M, one hour incubation at 37°C
Protocol: This test was carried out, in the manner known from the literature, in 13 ml samples of expectorate collected from hospitalized patients, and stored in a freezer at -20°C until the testing time.
At the tested concentration of the compound undergoing the experiment (0.05M) a viscosity reduction of 16% (29% to 13%) was found. ^7

Swiss male albine mice = experiment: acetic acid induced stretching or writhing inhibition test (analgesic activity); format: in vivo
Protocol: This test was carried out in Swiss male albine mice, having a body weight of 30-40 g through the "stretching or writhing" inhibition test, as induced by acetic acid, the test being carried out in a manner per se known from the literature.

Sprague-Dawley male,rats = experiment: yeast induced hyperpyrexy test (antipyretic activity); format: in vivo; conditions: Rattus norvegicus, tested dosages 100, 200 and 400 mg/kg
Protocol: This test has been carried out in the manner known from the literature in Sprague-Dawley male,rats, having a body weight of 190-220g, which were selected according to the rectal temperature which was of between 37.0 and 37.7°C.
The hyperpyrexy was induced by subcutaneous injection of 2.0 ml of a 7.5% suspension of yeast as prepared at the moment.
The tested dosages were 100, 200 and 400 mg/kg and the found ED33 value was 802 mg/kg.

[2] = tested on: Sprague-Dawaley male rats; experiment: carrageenin induced oedema test (anti-inflammatory activity); format: in vivo; conditions: for ED33: Rattus norvegicus, carrageenin oedema inhibition
Protocol: This activity has been evaluated for the NXTP compound by the carrageenin induced oedema test, carried out in the manner known in the literature, in Sprague-Dawaley male rats, having a body weight of 180-200 g, the NXTP being administered to groups of 3 animals each at the dosages of 50, 100, 200 and 400 mg/kg, the results
being evalutaed in comparison with a control group.
Since in no caso an inhibition rate of 50% was attained, the value of ED 33 was calculated, it being 759 rng/kg (0,651 mM/kg).

solubility in water = format: physicochemical

Row | solubility in water (solubility in water) | pH (solubility in water; pH of the product dissolved in water) | SMILES | viscosity reduction (net of the 13% reduction with physiological solution) [1] | viscosity reduction (total) [1] | ED50 (Swiss male albine mice; Mus musculus, sc, inhibition of contorsions induced by acetic acid, subcutaneous route, tested doses 50, 100 and 200 mg/kg) | inhibition of the number of contorsions (dose dependence) (Swiss male albine mice; doses 50, 100 and 200 mg/kg by subcutaneous route) | ED33 (Sprague-Dawley male,rats) | ED33 ([2]; same value in molar unit) | ED33 ([2]; tested dosages 50, 100, 200 and 400 mg/kg, calculated because 50% inhibition was not attained) | oedema inhibition (dose dependence) ([2]; dosages 50, 100, 200 and 400 mg/kg, versus control group) | inhibition rate ([2]; oedema inhibition at 50, 100, 200 and 400 mg/kg, 50% attained in no case)
1 | – | – | COc1ccc2cc(C(C)C(=O)SC(C)C(=O)NCC(=O)O)ccc2c1 (racemic) [NXTP, propionylerytrhomycin salt of DL-2-(6-methoxy-2-napthyl)-propionyl-alpha-thio-propionylglycine] | 16% | 29% | 400 mg/kg | in a rate proportional to the administered doses | 802 mg/kg | 651 µmol/kg | 759 mg/kg | causes the oedema to be inhibited proportionally to the administered dose | < 50%
2 | perfectly soluble in water | – | COc1ccc2cc(C(C)C(=O)SC(C)C(=O)NCC(=O)O)ccc2c1 (single isomer, unassigned) [L(+)-lysine salt of the DL-2-(6-methoxy-2-napthyl)-alpha- th] [L(+)lysine salt of DL-2-(6-methoxy-2-napthyl)-propionyl-alpha-thio-propionylglycine acid] | – | – | – | – | – | – | – | – | –
3 | soluble in water | 7.3 | COc1ccc2cc(C(C)C(=O)SC(C)C(=O)NCC(=O)O)ccc2c1 (single isomer, unassigned) [arginine crystalline product, Arginine salt of DL-2-(6-methoxy-2-napthyl)propionyl-alpha-thio-propionylglycine] | – | – | – | – | – | – | – | – | –
